In paper PMC12863215, “The vacuolar transporters MaMATE11 and MaMATE14 affect blue flower coloration in grape hyacinth (Muscari)” (Horticulture Research, 2025):

Tests used:
MaMATE14 = test system: T1, MaMATE14; test: uptake into yeast microsomal vesicles, HPLC, Lineweaver-Burk; type: biochemical, Muscari aucheri; conditions: transport; 5 mM MgATP, 25 mM Tris-MES pH 8.0, 50 mM KCl, 25 °C, 20 min; minus-ATP subtracted
T1 construct: full-length cDNA in pYES2, expressed in Saccharomyces cerevisiae BY4741; microsomal vesicles; 510 residues; 12 predicted transmembrane segments

MaMATE11 = test system: T2, MaMATE11; test: as above; type: biochemical, Muscari aucheri; conditions: transport; 5 mM MgATP, 25 mM Tris-MES pH 8.0, 50 mM KCl, 25 °C, 20 min; minus-ATP subtracted
T2 construct: full-length cDNA in pYES2, expressed in Saccharomyces cerevisiae BY4741; microsomal vesicles; 441 residues; 10 predicted transmembrane segments

OC[C@H]1O[C@@H](Oc2cc3c(O[C@@H]4O[C@H](CO)[C@@H](O)[C@H](O)[C@H]4O)cc(O)cc3[o+]c2-c2ccc(O)c(O)c2)[C@H](O)[C@@H](O)[C@@H]1O [cyanidin-3,5-di-O-glucoside]
Km (MaMATE14): 45.3 µM
Km (MaMATE11): 27 µM

Oc1ccc([C@H]2Oc3cc(O)cc(O)c3C[C@H]2O)cc1 [(−)-epiafzelechin]
Km (MaMATE14): 43.8 µM
Km (MaMATE11): 57.4 µM

OC[C@H]1O[C@@H](Oc2cc3c(O)cc(O)cc3[o+]c2-c2ccc(O)c(O)c2)[C@H](O)[C@@H](O)[C@@H]1O [cyanidin-3-O-glucoside]
Km (MaMATE14): 61.4 µM
Km (MaMATE11): 57.5 µM

O=c1c(O)c(-c2ccc(O)cc2)oc2cc(O[C@@H]3O[C@H](CO)[C@@H](O)[C@H](O)[C@H]3O)cc(O)c12 [kaempferol 7-O-glucoside]
Km (MaMATE14): 57.4 µM
Km (MaMATE11): 60.2 µM
